Assays:
[1] = biological target: T1, full-length beta-Catenin (Uniprot ID P35222) (Homo sapiens, UniProt P35222); test: Fluorescence polarization IC50 (beta-catenin / 5FAM-TCF4 10-53 competition); type: binding; conditions: fluorescence polarization; read-out: beta-Catenin FP IC50
T1 construct: 10 nM full-length beta-Catenin (Uniprot ID P35222)
T1 sequence (P35222 1-781): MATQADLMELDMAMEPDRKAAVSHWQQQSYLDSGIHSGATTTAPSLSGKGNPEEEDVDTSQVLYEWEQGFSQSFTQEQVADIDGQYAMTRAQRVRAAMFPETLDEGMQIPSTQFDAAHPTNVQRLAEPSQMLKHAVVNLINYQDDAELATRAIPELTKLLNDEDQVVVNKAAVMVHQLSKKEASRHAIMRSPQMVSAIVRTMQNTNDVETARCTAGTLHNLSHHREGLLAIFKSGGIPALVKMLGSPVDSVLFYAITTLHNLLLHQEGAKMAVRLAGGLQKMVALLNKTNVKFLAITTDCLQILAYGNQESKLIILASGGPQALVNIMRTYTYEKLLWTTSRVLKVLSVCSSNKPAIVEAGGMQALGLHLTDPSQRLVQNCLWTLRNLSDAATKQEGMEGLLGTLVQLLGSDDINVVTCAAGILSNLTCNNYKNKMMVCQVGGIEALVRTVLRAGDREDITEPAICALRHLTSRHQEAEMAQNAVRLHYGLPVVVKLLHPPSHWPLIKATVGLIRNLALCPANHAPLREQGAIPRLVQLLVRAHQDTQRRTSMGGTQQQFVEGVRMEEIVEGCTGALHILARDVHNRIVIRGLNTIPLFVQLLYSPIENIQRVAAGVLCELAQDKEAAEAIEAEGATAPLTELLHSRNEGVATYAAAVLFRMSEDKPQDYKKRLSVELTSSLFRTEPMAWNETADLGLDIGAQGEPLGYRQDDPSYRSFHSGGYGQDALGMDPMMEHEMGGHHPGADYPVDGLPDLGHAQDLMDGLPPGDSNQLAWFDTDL

[2] = biological target: T2, beta-catenin/TCF4 engagement (Homo sapiens, UniProt P35222); test: Nano-BRET target engagement assay (B-cat-Halo & TCF4-Luc in HEK293 cells); type: cell-based; conditions: absolute IC50; read-out: NanoBRET Abs IC50
T2 construct: expressed in transfected cells; host or cells: HEK293
T2 sequence (P35222 1-781): T1 sequence (P35222 1-781)

| IC50 [1] [nM] | IC50 [2] [nM] | SMILES |
| --- | --- | --- |
| 138 | > 20000 | CC(=O)N1CCC[C@]12CC=CCCCC1(CCCC=CCCCOC(=O)N3CC[C@@](C(=O)N[C@@H](Cc4ccsc4)C(=O)N[C@@H](Cc4csc5ccccc45)C(=O)N[C@@H](CCC(N)=O)C(N)=O)(C3)NC(=O)[C@H](CCCNC(=N)N)NC(=O)[C@H](Cc3ccccc3)NC(=O)[C@H](C)NC(=O)C(C)(C)NC(=O)[C@H]([C@@H](C)O)NC(=O)[C@H](CC(N)=O)NC1=O)NC(=O)[C@H](CC(C)(C)C)NC(=O)[C@H](CC(=O)O)NC2=O (stereo partly drawn) [I-2407, Ac-PL3-Asp-Npg-B5-Asn-Thr-Aib-Ala-Phe-Arg-PyrS2-3Thi-BztA-Gln-NH2] |
| 397 | 50000 | CC(=O)N1CCC[C@]12CC=CCCCC1(CCCC=CCCCOC(=O)N3CC[C@@](C(=O)N[C@@H](Cc4ccsc4)C(=O)N[C@@H](Cc4csc5ccccc45)C(=O)N[C@@H](CCC(N)=O)C(N)=O)(C3)NC(=O)[C@H]([C@@H](C)O)NC(=O)[C@H](Cc3ccccc3)NC(=O)[C@H](C)NC(=O)C(C)(C)NC(=O)[C@H]([C@@H](C)O)NC(=O)[C@H](CC(N)=O)NC1=O)NC(=O)[C@H](CC(C)(C)C)NC(=O)[C@H](CC(=O)O)NC2=O (stereo partly drawn) [I-2409, Ac-PL3-Asp-Npg-B5-Asn-Thr-Aib-Ala-Phe-Thr-PyrS2-3Thi-BztA-Gln-NH2] |
| 304 | > 20000 | CC(=O)N1CCC[C@]12CC=CCCCC1(CCCC=CCCCOC(=O)N3CC[C@@](C(=O)N[C@@H](Cc4ccsc4)C(=O)N[C@@H](Cc4csc5ccccc45)C(=O)N[C@@H](CCC(N)=O)C(N)=O)(C3)NC(=O)[C@H](Cc3c[nH]cn3)NC(=O)[C@H](Cc3ccccc3)NC(=O)[C@H](C)NC(=O)C(C)(C)NC(=O)[C@H]([C@@H](C)O)NC(=O)[C@H](CC(N)=O)NC1=O)NC(=O)[C@H](CC(C)(C)C)NC(=O)[C@H](CC(=O)O)NC2=O (stereo partly drawn) [I-2410, Ac-PL3-Asp-Npg-B5-Asn-Thr-Aib-Ala-Phe-His-PyrS2-3Thi-BztA-Gln-NH2] |
| 7 | > 20000 | CC(=O)N1CCC[C@]12CC=CCCCC1(CCCC=CCCCOC(=O)N3CC[C@@](C(=O)N[C@@H](Cc4ccsc4)C(=O)N[C@@H](Cc4csc5ccccc45)C(=O)N[C@@H](Cc4c[nH]cn4)C(N)=O)(C3)NC(=O)[C@H](CC(N)=O)NC(=O)[C@H](Cc3ccccc3)NC(=O)[C@H](C)NC(=O)C(C)(C)NC(=O)[C@H]([C@@H](C)O)NC(=O)[C@H](CC(N)=O)NC1=O)NC(=O)[C@H](CC(C)(C)C)NC(=O)[C@H](CC(=O)O)NC2=O (stereo partly drawn) [I-2414, Ac-PL3-Asp-Npg-B5-Asn-Thr-Aib-Ala-Phe-Asn-PyrS2-3Thi-BztA-His-NH2] |
| 147 | > 20000 | CC(=O)N1CCC[C@]12CC=CCCCC1(CCCC=CCCCOC(=O)N3CC[C@@](C(=O)N[C@@H](Cc4ccsc4)C(=O)N[C@@H](Cc4csc5ccccc45)C(=O)N[C@@H](CC(N)=O)C(N)=O)(C3)NC(=O)[C@H](CC(N)=O)NC(=O)[C@H](Cc3ccccc3)NC(=O)[C@H](C)NC(=O)C(C)(C)NC(=O)[C@H]([C@@H](C)O)NC(=O)[C@H](CC(N)=O)NC1=O)NC(=O)[C@H](CC(C)(C)C)NC(=O)[C@H](CC(=O)O)NC2=O (stereo partly drawn) [I-2415, Ac-PL3-Asp-Npg-B5-Asn-Thr-Aib-Ala-Phe-Asn-PyrS2-3Thi-BztA-Asn-NH2] |
| 158 | 21600 | CC(=O)N1CCC[C@]12CC=CCCCC1(CCCC=CCCCOC(=O)N3CC[C@@](C(=O)N[C@@H](Cc4ccsc4)C(=O)N[C@@H](Cc4ccc(Cl)c(Cl)c4)C(=O)N[C@@H](CCC(N)=O)C(N)=O)(C3)NC(=O)[C@H](CC(N)=O)NC(=O)[C@H](Cc3ccccc3)NC(=O)[C@H](C)NC(=O)C(C)(C)NC(=O)[C@H]([C@@H](C)O)NC(=O)[C@H](CC(N)=O)NC1=O)NC(=O)[C@H](CC(C)(C)C)NC(=O)[C@H](CC(=O)O)NC2=O (stereo partly drawn) [I-2417, Ac-PL3-Asp-Npg-B5-Asn-Thr-Aib-Ala-Phe-Asn-PyrS2-3Thi-34C1F-Gln-NH2] |
| 203 | > 20000 | CC(=O)N1CCC[C@]12CC=CCCCC1(CCCC=CCCCOC(=O)N3CC[C@@](C(=O)N[C@@H](Cc4ccccc4)C(=O)N[C@@H](Cc4csc5ccccc45)C(=O)N[C@@H](CCCCN)C(N)=O)(C3)NC(=O)[C@H](CC(C)C)NC(=O)[C@H](Cc3ccccc3)NC(=O)[C@H](C)NC(=O)[C@H](CCO)NC(=O)[C@H](CCC(N)=O)NC(=O)[C@H](CC(=O)O)NC1=O)NC(=O)[C@H](CC1CCCCC1)NC(=O)[C@H](CC(N)=O)NC2=O (stereo partly drawn) [I-2419, Ac-PL3-Asn-Cha-B5-Asp-Gln-Hse-Ala-Phe-Leu-PyrS2-Phe-BztA-Lys-NH2] |
| 145 | > 20000 | CC(=O)N1CCC[C@]12CC=CCCCC1(CCCC=CCCCOC(=O)N3CC[C@@](C(=O)N[C@@H](Cc4ccccc4)C(=O)N[C@@H](Cc4csc5ccccc45)C(=O)N[C@@H](CCCCN)C(N)=O)(C3)NC(=O)[C@H](CC(C)C)NC(=O)[C@H](Cc3ccccc3)NC(=O)[C@H](C)NC(=O)[C@H](CCC(N)=O)NC(=O)[C@H](CCC(N)=O)NC(=O)[C@H](CC(=O)O)NC1=O)NC(=O)[C@H](CC1CCCCC1)NC(=O)[C@H](CC(N)=O)NC2=O (stereo partly drawn) [I-2421, Ac-PL3-Asn-Cha-B5-Asp-Gln-Gln-Ala-Phe-Leu-PyrS2-Phe-BztA-Lys-NH2] |
| 10 | > 20000 | CC(=O)N1CCC[C@]12CC=CCCCC1(CCCC=CCCCOC(=O)N3CC[C@@](C(=O)N[C@@H](Cc4ccccc4)C(=O)N[C@@H](Cc4csc5ccccc45)C(=O)N[C@@H](CCCCN)C(N)=O)(C3)NC(=O)[C@H](CC(C)C)NC(=O)[C@H](Cc3ccccc3)NC(=O)[C@H](C)NC(=O)[C@H](CCCCNC(C)C)NC(=O)[C@H](CCC(N)=O)NC(=O)[C@H](CC(=O)O)NC1=O)NC(=O)[C@H](CC1CCCCC1)NC(=O)[C@H](CC(=O)O)NC2=O (stereo partly drawn) [I-2429, Ac-PL3-Asp-Cha-B5-Asp-Gln-iPrLys-Ala-Phe-Leu-PyrS2-Phe-BztA-Lys-NH2] |
| 32 | 4500 | CC(=O)N1CCC[C@]12CC=CCCCC1(CCCC=CCCCOC(=O)N3CC[C@@](C(=O)N[C@@H](Cc4ccccc4C(F)(F)F)C(=O)N[C@@H](Cc4csc5ccccc45)C(=O)N[C@@H](CCC(N)=O)C(N)=O)(C3)NC(=O)[C@H](CC(C)C)NC(=O)[C@H](Cc3ccccc3)NC(=O)[C@H](C)NC(=O)[C@H](C)NC(=O)[C@H](Cc3cc(C(=O)O)cc(C(C)C)c3)NC(=O)[C@H](CC(=O)O)NC1=O)NC(=O)[C@H](CC(C)(C)C)NC(=O)[C@H](CC(=O)O)NC2=O (stereo partly drawn) [I-2430, Ac-PL3-Asp-Npg-B5-Asp-5iPr3COOHF-Ala-Ala-Phe-Leu-PyrS2-2F3MeF-BztA-Gln-NH2] |
| 33 | 7000 | CC(=O)N1CCC[C@]12CC=CCCCC1(CCCC=CCCCOC(=O)N3CC[C@@](C(=O)N[C@@H](Cc4ccccc4C(F)(F)F)C(=O)N[C@@H](Cc4csc5ccccc45)C(=O)N[C@@H](C)C(N)=O)(C3)NC(=O)[C@H](CC(C)C)NC(=O)[C@H](Cc3ccccc3)NC(=O)[C@H](C)NC(=O)[C@H](CCC(N)=O)NC(=O)[C@H](Cc3cc(C(=O)O)cc(C(C)C)c3)NC(=O)[C@H](CC(=O)O)NC1=O)NC(=O)[C@H](CC(C)(C)C)NC(=O)[C@H](CC(=O)O)NC2=O (stereo partly drawn) [I-2431, Ac-PL3-Asp-Npg-B5-Asp-5iPr3COOHF-Gln-Ala-Phe-Leu-PyrS2-2F3MeF-BztA-Ala-NH2] |
| 93 | > 20000 | CC(=O)N1CCC[C@]12CC=CCCCC1(CCCC=CCCCOC(=O)N3CC[C@@](C(=O)N[C@@H](Cc4ccsc4)C(=O)N[C@@H](Cc4csc5ccccc45)C(=O)N[C@@H](CCC(N)=O)C(N)=O)(C3)NC(=O)[C@H](CC(C)C)NC(=O)[C@H](Cc3ccccc3)NC(=O)[C@H](C)NC(=O)[C@H](CCCCNC(C)C)NC(=O)[C@H](CCC(N)=O)NC(=O)[C@H](CC(=O)O)NC1=O)NC(=O)[C@H](CC1CCCCC1)NC(=O)[C@H](CC(N)=O)NC2=O (stereo partly drawn) [I-2446, Ac-PL3-Asn-Cha-B5-Asp-Gln-iPrLys-Ala-Phe-Leu-PyrS2-3Thi-BztA-Gln-NH2] |
| 84 | > 20000 | CC(=O)N1CCC[C@]12CC=CCCCC1(CCCC=CCCCOC(=O)N3CC[C@@](C(=O)N[C@@H](Cc4ccccc4)C(=O)N[C@@H](Cc4csc5ccccc45)C(=O)N[C@@H](CCC(N)=O)C(N)=O)(C3)NC(=O)[C@H](CC(C)C)NC(=O)[C@H](Cc3ccccc3)NC(=O)[C@H](C)NC(=O)[C@H](CCCCNC(C)C)NC(=O)[C@H]([C@@H](C)O)NC(=O)[C@H](CC(=O)O)NC1=O)NC(=O)[C@H](CC1CCCCC1)NC(=O)[C@H](CC(N)=O)NC2=O (stereo partly drawn) [I-2448, Ac-PL3-Asn-Cha-B5-Asp-Thr-iPrLys-Ala-Phe-Leu-PyrS2-Phe-BztA-Gln-NH2] |
| 63 | > 20000 | CC(=O)N1CCC[C@]12CC=CCCCC1(CCCC=CCCCOC(=O)N3CC[C@@](C(=O)N[C@@H](Cc4ccccc4)C(=O)N[C@@H](Cc4csc5ccccc45)C(=O)N[C@@H](CCCCN)C(N)=O)(C3)NC(=O)[C@H](CC(C)C)NC(=O)[C@H](Cc3ccccc3)NC(=O)[C@H](C)NC(=O)[C@H](CCCCNC(C)C)NC(=O)[C@H]([C@@H](C)O)NC(=O)[C@H](CC(=O)O)NC1=O)NC(=O)[C@H](CC1CCCCC1)NC(=O)[C@H](CC(N)=O)NC2=O (stereo partly drawn) [I-2450, Ac-PL3-Asn-Cha-B5-Asp-Thr-iPrLys-Ala-Phe-Leu-PyrS2-Phe-BztA-Lys-NH2] |

Reference: US20240116985A1, “STAPLED PEPTIDES AND METHODS THEREOF” (priority 2020, published 2024)
